Assay results as given in ChEMBL document CHEMBL1152187, “Synthesis of C4-fluorinated solamins and their growth inhibitory activity against human cancer cell lines” (2008).

Assays:
Type in all cases: functional
DMS-273 = assay: Growth inhibition of human DMS273 cells by sulforhodamine B assay
SK-OV-3 = assay: Growth inhibition of human SKOV3 cells by sulforhodamine B assay
LOX IMVI = assay: Growth inhibition of human LOXIMVI cells by sulforhodamine B assay
NCI-H522 = assay: Growth inhibition of human NCI-H522 cells by sulforhodamine B assay
[1] = Growth inhibition of human HBC4 cells by sulforhodamine B assay
NCI-H23 = assay: Growth inhibition of human NCI-H23 cells by sulforhodamine B assay
HT-29 = assay: Growth inhibition of human HT-29 cells by sulforhodamine B assay
HCC 2998 = assay: Growth inhibition of human HCC2998 cells by sulforhodamine B assay
MKN-74 = assay: Growth inhibition of human MKN74 cells by sulforhodamine B assay
MKN-7 = assay: Growth inhibition of human MKN7 cells by sulforhodamine B assay
MCF7 = assay: Growth inhibition of human MCF7 cells by sulforhodamine B assay
NCI-H460 = assay: Growth inhibition of human NCI-H460 cells by sulforhodamine B assay
PC-3 = assay: Growth inhibition of human PC3 cells by sulforhodamine B assay
ACHN = assay: Growth inhibition of human ACHN cells by sulforhodamine B assay
SNB-75 = assay: Growth inhibition of human SNB75 cells by sulforhodamine B assay
A549 = assay: Growth inhibition of human A549 cells by sulforhodamine B assay
[2] = Growth inhibition of human MKN1 cells by sulforhodamine B assay; details: MKN-1
OVCAR-8 = assay: Growth inhibition of human OVCAR8 cells by sulforhodamine B assay
[3] = Growth inhibition of human RXF631L cells by sulforhodamine B assay; details: RXF 631
[4] = Growth inhibition of human HBC5 cells by sulforhodamine B assay
SF-268 = assay: Growth inhibition of human SF268 cells by sulforhodamine B assay
KM12 = assay: Growth inhibition of human KM12 cells by sulforhodamine B assay
SF-539 = assay: Growth inhibition of human SF539 cells by sulforhodamine B assay
St-4 = assay: Growth inhibition of human St-4 cells by sulforhodamine B assay
HCT-116 = assay: Growth inhibition of human HCT116 cells by sulforhodamine B assay
U-251 = assay: Growth inhibition of human U251 cells by sulforhodamine B assay
SF-295 = assay: Growth inhibition of human SF295 cells by sulforhodamine B assay
MDA-MB-231 = assay: Growth inhibition of human MDA-MB-231 cells by sulforhodamine B assay
HCT-15 = assay: Growth inhibition of human HCT15 cells by sulforhodamine B assay
DU-145 = assay: Growth inhibition of human DU145 cells by sulforhodamine B assay
NCI-H226 = assay: Growth inhibition of human NCI-H226 cells by sulforhodamine B assay
OVCAR-5 = assay: Growth inhibition of human OVCAR5 cells by sulforhodamine B assay
MKN-45 = assay: Growth inhibition of human MKN45 cells by sulforhodamine B assay
DMS-114 = assay: Growth inhibition of human DMS114 cells by sulforhodamine B assay
OVCAR-3 = assay: Growth inhibition of human OVCAR-3 cells by sulforhodamine B assay
OVCAR-4 = assay: Growth inhibition of human OVCAR4 cells by sulforhodamine B assay
MKN-28 = assay: Growth inhibition of human MKN28 cells by sulforhodamine B assay
[5] = Growth inhibition of human BSY1 cells by sulforhodamine B assay; details: BSY-1
SNB-78 = assay: Growth inhibition of human SNB-78 cells by sulforhodamine B assay

Compound	GI50 (DMS-273) [µM]	GI50 (SK-OV-3) [µM]	GI50 (LOX IMVI) [µM]	GI50 (NCI-H522) [µM]	GI50 [1] [µM]	GI50 (NCI-H23) [µM]	GI50 (HT-29) [µM]	GI50 (HCC 2998) [µM]	GI50 (MKN-74) [µM]	GI50 (MKN-7) [µM]	GI50 (MCF7) [µM]	GI50 (NCI-H460) [µM]	GI50 (PC-3) [µM]	GI50 (ACHN) [µM]	GI50 (SNB-75) [µM]	GI50 (A549) [µM]	GI50 [2] [µM]	GI50 (OVCAR-8) [µM]	GI50 [3] [µM]	GI50 [4] [µM]	also measured
CCCCCCCCCCCC[C@@H](O)[C@H]1CC[C@H]([C@H](O)CCCCCCCCCC[C@@H](O)CC2=C[C@H](C)OC2=O)O1 [MURISOLIN]	72	> 100	1.9	3.6	> 100	0.22	> 100	> 100	4.6	0.7	3.9	> 100	17	> 100	39	96	20	38	40	9.7	GI50 (SF-268): > 100 µM; GI50 (KM12): > 100 µM; GI50 (SF-539): 88 µM; GI50 (St-4): 41 µM; GI50 (HCT-116): 3.7 µM; GI50 (U-251): 7.3 µM; GI50 (SF-295): 7.3 µM; GI50 (MDA-MB-231): > 100 µM; GI50 (HCT-15): 51 µM; GI50 (DU-145): > 100 µM; GI50 (NCI-H226): 29 µM; GI50 (OVCAR-5): > 100 µM; GI50 (MKN-45): > 100 µM; GI50 (DMS-114): < 0.01 µM; GI50 (OVCAR-3): 6.9 µM; GI50 (OVCAR-4): 6.9 µM; GI50 (MKN-28): 2.8 µM; GI50 [5]: 8.3 µM; GI50 (SNB-78): 78 µM
CCCCCCCCCCCC[C@@H](O)[C@H]1CC[C@H]([C@H](O)CCCCCCCCCCCCC2=C[C@H](C)OC2=O)O1 [REL-SOLAMIN]	> 100	> 100	29	58	> 100	73	> 100	> 100	> 100	13	71	> 100	> 100	> 100	> 100	> 100	> 100	> 100	> 100	> 100	GI50 (SF-268): > 100 µM; GI50 (KM12): > 100 µM; GI50 (SF-539): > 100 µM; GI50 (St-4): > 100 µM; GI50 (HCT-116): > 100 µM; GI50 (U-251): > 100 µM; GI50 (SF-295): 40 µM; GI50 (MDA-MB-231): > 100 µM; GI50 (HCT-15): > 100 µM; GI50 (DU-145): > 100 µM; GI50 (NCI-H226): > 100 µM; GI50 (OVCAR-5): > 100 µM; GI50 (MKN-45): > 100 µM; GI50 (DMS-114): 4.3 µM; GI50 (OVCAR-3): > 100 µM; GI50 (OVCAR-4): > 100 µM; GI50 (MKN-28): 14 µM; GI50 [5]: > 100 µM; GI50 (SNB-78): > 100 µM
CCCCCCCCCCCC[C@@H](O)[C@H]1CC[C@H]([C@H](O)CCCCCCCCCC[C@@H](F)CC2=C[C@H](C)OC2=O)O1	> 100	> 100	6.5	25	> 100	23	> 100	> 100	> 100	0.96	56	> 100	> 100	> 100	84	> 100	> 100	62	> 100	> 100	GI50 (SF-268): > 100 µM; GI50 (KM12): > 100 µM; GI50 (SF-539): > 100 µM; GI50 (St-4): 74 µM; GI50 (HCT-116): 2 µM; GI50 (U-251): > 100 µM; GI50 (SF-295): 37 µM; GI50 (MDA-MB-231): > 100 µM; GI50 (HCT-15): > 100 µM; GI50 (DU-145): > 100 µM; GI50 (NCI-H226): 58 µM; GI50 (OVCAR-5): > 100 µM; GI50 (MKN-45): > 100 µM; GI50 (DMS-114): 0.26 µM; GI50 (OVCAR-3): > 100 µM; GI50 (OVCAR-4): > 100 µM; GI50 (MKN-28): 41 µM; GI50 [5]: > 100 µM; GI50 (SNB-78): > 100 µM
CCCCCCCCCCCC[C@@H](O)[C@H]1CC[C@H]([C@H](O)CCCCCCCCCC[C@H](F)CC2=C[C@H](C)OC2=O)O1	> 100	> 100	97	16	> 100	5.1	92	> 100	> 100	19	37	> 100	84	> 100	58	> 100	> 100	> 100	> 100	> 100	GI50 (SF-268): > 100 µM; GI50 (KM12): > 100 µM; GI50 (SF-539): > 100 µM; GI50 (St-4): > 100 µM; GI50 (HCT-116): 27 µM; GI50 (U-251): > 100 µM; GI50 (SF-295): 31 µM; GI50 (MDA-MB-231): > 100 µM; GI50 (HCT-15): > 100 µM; GI50 (DU-145): > 100 µM; GI50 (NCI-H226): 40 µM; GI50 (OVCAR-5): > 100 µM; GI50 (MKN-45): 43 µM; GI50 (DMS-114): 0.46 µM; GI50 (OVCAR-3): > 100 µM; GI50 (OVCAR-4): > 100 µM; GI50 (MKN-28): > 100 µM; GI50 [5]: 69 µM; GI50 (SNB-78): > 100 µM
